# Reference: US4328334A, “11-Aza-10-deoxo-10-dihydroerythromycin A and derivatives thereof as well as a process for their preparation” (PLIVA Pharmaceutical and Chemical Works, priority 1979, dated 1982)
# Where two headings read alike, the source gives them in different places.
# How the values were obtained:
# [1] = system: Corynebacterium xerosis NCTC 9755; assay: in vitro minimum inhibitory concentration, Corynebacterium xerosis NCTC 9755; format: cell-based
# [2] = system: Streptococcus faecalis ATCC 8043; assay: in vitro minimum inhibitory concentration, Streptococcus faecalis ATCC 8043; format: cell-based; conditions: Enterococcus faecalis
# [3] = system: Escherichia coli ATCC 10536; assay: in vitro minimum inhibitory concentration, Escherichia coli ATCC 10536; format: cell-based; conditions: ATCC10536, read-out: minimum inhibitory concentrations (MIC)
# [4] = system: Shigella flexneri II-1819/C; assay: in vitro minimum inhibitory concentration, Shigella flexneri II-1819/C; format: cell-based; conditions: II1819/C, read-out: minimum inhibitory concentrations (MIC)
# Description: In order to examine the antibacterial action, some new compounds were tested in vitro on a series of gram-positive and gram-negative micro-organisms. The results are shown in Table 1 as minimum inhibitory concentrations (MIC) in mcg/ml in comparision with erythromycin A erythromycin A oxime.
# Sarcina lutea ATCC 9341 = assay: in vitro minimum inhibitory concentration, Sarcina lutea ATCC 9341; format: cell-based; conditions: Micrococcus luteus, ATCC9341, read-out: minimum inhibitory concentrations (MIC)
# [5] = system: Staphylococcus aureus ATCC 6538-P; assay: in vitro minimum inhibitory concentration, Staphylococcus aureus ATCC 6538-P; format: cell-based
# [6] = system: Bacillus cereus var. mycoides ATCC 11778; assay: microbe, parasite or virus in culture; format: cell-based; conditions: ATCC11778, read-out: minimum inhibitory concentrations (MIC)
# [7] = acute i.v. toxicity in albino mice (Litchfield-Wilcoxon); conditions: mouse, in vivo, iv; acute i.v., albino mice
# [8] = system: Staphylococcus aureus ATCC 6538-P; assay: stability in acid medium: MIC after exposure to 1 N HCl; format: cell-based; conditions: for MIC: ATCC6538, pH 1.2, Staphylococcus aureus ATCC 6538-P; for stability in acid medium compared with erythromycin A / stability in acid medium compared with erythromycin A oxime: pH 1.2, 30 minutes to 6 hours
# [9] = system: Micrococcus flavus ATCC 10240; assay: in vitro minimum inhibitory concentration, Micrococcus flavus ATCC 10240; format: cell-based
# [10] = system: Brucella bronchiseptica ATCC 4617; assay: microbe, parasite or virus in culture; format: cell-based; conditions: Bordetella bronchiseptica, ATCC4617, read-out: minimum inhibitory concentrations (MIC)
# [11] = system: Pseudomonas aeruginosa NCTC 10490; assay: in vitro minimum inhibitory concentration, Pseudomonas aeruginosa NCTC 10490; format: cell-based
# [12] = system: Bacillus subtilis ATCC 6633; assay: in vitro minimum inhibitory concentration, Bacillus subtilis ATCC 6633; format: cell-based
# [13] = system: Klebsiella pneumoniae ATCC 10031; assay: in vitro minimum inhibitory concentration, Klebsiella pneumoniae ATCC 10031; format: cell-based
# [14] = system: Staphylococcus epidermidis ATCC 12228; assay: in vitro minimum inhibitory concentration, Staphylococcus epidermidis ATCC 12228; format: cell-based
# Salmonella panama = assay: in vitro minimum inhibitory concentration, Salmonella panama; format: cell-based; conditions: Salmonella enterica, read-out: minimum inhibitory concentrations (MIC)
# [15] = pKb in dimethyl formamide-water; format: physicochemical; conditions: dmf (66% v/v)-water; dimethyl formamide (66% v/v)-water
# albino mice = assay: acute i.v. toxicity in albino mice (Litchfield-Wilcoxon); conditions: mouse, in vivo, iv
# [16] = NCTC9755, in vitro, Corynebacterium xerosis NCTC 9755, read-out: minimum inhibitory concentrations (MIC)
# [17] = ATCC8043, in vitro, Streptococcus faecalis ATCC 8043, read-out: minimum inhibitory concentrations (MIC)
# [18] = ATCC6538, in vitro, Staphylococcus aureus ATCC 6538-P, read-out: minimum inhibitory concentrations (MIC)
# [19] = exposure time 1/2 hour, 1 N HCl
# [20] = ATCC10240, in vitro, Micrococcus flavus ATCC 10240, read-out: minimum inhibitory concentrations (MIC)
# [21] = NCTC10490, in vitro, Pseudomonas aeruginosa NCTC 10490, read-out: minimum inhibitory concentrations (MIC)
# [22] = ATCC6633, in vitro, Bacillus subtilis ATCC 6633, read-out: minimum inhibitory concentrations (MIC)
# [23] = ATCC10031, in vitro, Klebsiella pneumoniae ATCC 10031, read-out: minimum inhibitory concentrations (MIC)
# [24] = ATCC12228, in vitro, Staphylococcus epidermidis ATCC 12228, read-out: minimum inhibitory concentrations (MIC)
# [25] = ATCC8043, read-out: minimum inhibitory concentrations (MIC)
# [26] = Micrococcus flavus, ATCC10240, read-out: minimum inhibitory concentrations (MIC)
Structure (SMILES),"MIC [2, 17]",MIC [3],MIC [4],MIC (Sarcina lutea ATCC 9341),"MIC [5, 18]",MIC [6],MIC ([8]; exposure time 0 hours),"MIC [8, 19]","MIC ([8]; exposure time 1 hour, 1 N HCl)","MIC ([8]; exposure time 2 hours, 1 N HCl)","MIC ([8]; exposure time 3 hours, 1 N HCl)","MIC ([8]; exposure time 6 hours, 1 N HCl)","MIC [9, 20]",MIC [10],"MIC [12, 22]","MIC [14, 24]",pKa [15],other results
"CC[C@H]1OC(=O)[C@H](C)[C@@H](O[C@H]2C[C@@](C)(OC)[C@@H](O)[C@H](C)O2)[C@H](C)[C@@H](O[C@@H]2O[C@H](C)C[C@H](N(C)C)[C@H]2O)[C@](C)(O)C[C@@H](C)C(=NO)[C@H](C)[C@@H](O)[C@]1(C)O [EO, erythromycin A oxime, reference compound]",0.05 µg/mL,25 µg/mL,50 µg/mL,0.05 µg/mL,0.5 µg/mL,0.1 µg/mL,0.1 µg/mL,0.1 µg/mL,0.1 µg/mL,0.5 µg/mL,0.5 µg/mL,0.5 µg/mL,0.1 µg/mL,1 µg/mL,0.1 µg/mL,0.1 µg/mL,–,"MIC [1, 16]: 0.1 µg/mL; LD50 [7]: 74 mg/kg; MIC [11, 21]: 50 µg/mL; MIC [13, 23]: 5 µg/mL; MIC (Salmonella panama; in vitro, Salmonella panama): 50 µg/mL"
"CC[C@H]1OC(=O)[C@H](C)[C@@H](O[C@H]2C[C@@](C)(OC)[C@@H](O)[C@H](C)O2)[C@H](C)[C@@H](O[C@@H]2O[C@H](C)C[C@H](N(C)C)[C@H]2OC(C)=O)[C@](C)(O)C[C@@H](C)CN(C(C)=O)[C@H](C)[C@@H](O)[C@]1(C)O [Example 5, 2',N-diacetyl-11-aza-10-deoxo-10-dihydroerythromycin A]",–,–,–,–,–,–,–,–,–,–,–,–,–,–,–,–,6.7,–
"CCC(=O)O[C@H]1[C@H](O[C@@H]2[C@@H](C)[C@H](O[C@H]3C[C@@](C)(OC)[C@@H](O)[C@H](C)O3)[C@@H](C)C(=O)O[C@H](CC)[C@@](C)(O)[C@H](O)[C@@H](C)N(C(=O)CC)C[C@H](C)C[C@@]2(C)O)O[C@H](C)C[C@@H]1N(C)C [Example 6, 2',N-dipropionyl-11-aza-10-deoxo-10-dihydroerythromycin A]",–,–,–,–,–,–,–,–,–,–,–,–,–,–,–,–,6.7,–
"CC[C@H]1OC(=O)[C@H](C)[C@@H](O[C@H]2C[C@@](C)(OC)[C@@H](O)[C@H](C)O2)[C@H](C)[C@@H](O[C@@H]2O[C@H](C)C[C@H](N(C)C)[C@H]2O)[C@](C)(O)C[C@@H](C)CN[C@H](C)[C@H]2OC(=O)O[C@@]21C [Compound VI, 11-aza-10-deoxo-10-dihydroerythromycin A cyclic 13,14-carbonate]",0.05 µg/mL,–,–,0.1 µg/mL,1 µg/mL,2.5 µg/mL,1 µg/mL,1 µg/mL,1 µg/mL,2.5 µg/mL,2.5 µg/mL,2.5 µg/mL,0.5 µg/mL,–,0.5 µg/mL,2.5 µg/mL,–,stability in acid medium compared with erythromycin A ([8]; 1 N HCl): significantly more stable than erythromycin A; stability in acid medium compared with erythromycin A oxime ([8]; 1 N HCl): within the range of that of the starting antibioticum erythromycin A oxime
"CC[C@H]1OC(=O)[C@H](C)[C@@H](O[C@H]2C[C@@](C)(OC)[C@@H](O)[C@H](C)O2)[C@H](C)[C@@H](O[C@@H]2O[C@H](C)C[C@H](N(C)C)[C@H]2O)[C@](C)(O)C[C@@H](C)CN(S(=O)(=O)c2ccc(C)cc2)[C@H](C)[C@@H](O)[C@]1(C)O [Compound VIII, N-(4-methyl-benzenesulfonyl)-11-aza-10-deoxo-10-dihydroerythromycin A]",20 µg/mL,–,–,50 µg/mL,100 µg/mL,50 µg/mL,–,–,–,–,–,–,20 µg/mL,–,100 µg/mL,100 µg/mL,–,–
"CC[C@H]1OC(=O)[C@H](C)[C@@H](O[C@H]2C[C@@](C)(OC)[C@@H](OC(C)=O)[C@H](C)O2)[C@H](C)[C@@H](O[C@@H]2O[C@H](C)C[C@H](N(C)C)[C@H]2OC(C)=O)[C@](C)(O)C[C@@H](C)CN(C(C)=O)[C@H](C)[C@@H](O)[C@]1(C)O [Compound III, 2',4""-N-triacetyl-11-aza-10-deoxo-10-dihydroerythromycin A]",125 µg/mL,–,–,10 µg/mL,150 µg/mL,200 µg/mL,–,–,–,–,–,–,50 µg/mL,–,175 µg/mL,200 µg/mL,–,–
"CC[C@H]1OC(=O)[C@H](C)[C@@H](O[C@H]2C[C@@](C)(OC)[C@@H](OC(C)=O)[C@H](C)O2)[C@H](C)[C@@H](O[C@@H]2O[C@H](C)C[C@H](N(C)C)[C@H]2OC(C)=O)[C@](C)(O)C[C@@H](C)CN(C(C)=O)[C@H](C)[C@@H](OC(C)=O)[C@]1(C)O [Compound IV, 2',4"",13,N-tetraacetyl-11-aza-10-deoxo-10-dihydroerythromycin A]",–,–,–,10 µg/mL,200 µg/mL,175 µg/mL,–,–,–,–,–,–,–,–,200 µg/mL,200 µg/mL,–,"MIC [2, 25]: 175 µg/mL; MIC [9, 26]: 175 µg/mL"
"CC[C@H]1OC(=O)[C@H](C)[C@@H](O[C@H]2C[C@@](C)(OC)[C@@H](O)[C@H](C)O2)[C@H](C)[C@@H](O[C@@H]2O[C@H](C)C[C@H](N(C)C)[C@H]2O)[C@](C)(O)C[C@@H](C)CN[C@H](C)[C@@H](O)[C@]1(C)O [Compound I, 11-aza-4-0-cladinosyl-6-0-desosaminyl-15-ethyl-7,13,14-trihydroxy-3,5,7,9,12,14-hexamethyloxacyclopentadecane-2-one]",0.5 µg/mL,10 µg/mL,10 µg/mL,0.05 µg/mL,0.5 µg/mL,0.5 µg/mL,0.5 µg/mL,0.5 µg/mL,0.5 µg/mL,1 µg/mL,1 µg/mL,1 µg/mL,0.05 µg/mL,1 µg/mL,5 µg/mL,0.5 µg/mL,–,"MIC [1, 16]: 1 µg/mL; acute i.v. toxicity compared with erythromycin A oxime (albino mice): less toxic that the starting erythromycin A oxime; LD50 [7]: 110 mg/kg; stability in acid medium compared with erythromycin A ([8]; 1 N HCl): significantly more stable than erythromycin A; stability in acid medium compared with erythromycin A oxime ([8]; 1 N HCl): within the range of that of the starting antibioticum erythromycin A oxime; MIC [11, 21]: 50 µg/mL; MIC [13, 23]: 10 µg/mL; MIC (Salmonella panama; in vitro, Salmonella panama): 50 µg/mL"
"CCC(=O)N1C[C@H](C)C[C@@](C)(O)[C@H](O[C@@H]2O[C@H](C)C[C@H](N(C)C)[C@H]2O)[C@@H](C)[C@H](O[C@H]2C[C@@](C)(OC)[C@@H](O)[C@H](C)O2)[C@@H](C)C(=O)O[C@H](CC)[C@@](C)(O)[C@H](O)[C@H]1C [Compound V, N-propionyl-11-aza-10-deoxo-10-dihydroerythroycin A]",–,–,–,–,–,–,–,–,–,–,–,–,–,–,–,–,8.6,–
"CC[C@H]1OC(=O)[C@H](C)[C@@H](O[C@H]2C[C@@](C)(OC)[C@@H](O)[C@H](C)O2)[C@H](C)[C@@H](O[C@@H]2O[C@H](C)C[C@H](N(C)C)[C@H]2O)[C@](C)(O)C[C@@H](C)C(=O)[C@H](C)[C@@H](O)[C@]1(C)O [E, erythromycin A]",–,25 µg/mL,25 µg/mL,0.05 µg/mL,–,0.1 µg/mL,0.5 µg/mL,7.5 µg/mL,10 µg/mL,10 µg/mL,10 µg/mL,20 µg/mL,–,1 µg/mL,–,–,–,"MIC ([1]; Corynebacterium xerosis, NCTC9755, read-out: minimum inhibitory concentrations (MIC)): 0.1 µg/mL; MIC [2, 25]: 0.05 µg/mL; MIC ([5]; Staphylococcus aureus, ATCC6538, read-out: minimum inhibitory concentrations (MIC)): 0.5 µg/mL; MIC [9, 26]: 0.05 µg/mL; MIC ([11]; Pseudomonas aeruginosa, NCTC10490, read-out: minimum inhibitory concentrations (MIC)): 50 µg/mL; MIC ([12]; Bacillus subtilis, ATCC6633, read-out: minimum inhibitory concentrations (MIC)): 0.05 µg/mL; MIC ([13]; Klebsiella pneumoniae, ATCC10031, read-out: minimum inhibitory concentrations (MIC)): 5 µg/mL; MIC ([14]; Staphylococcus epidermidis, ATCC12228, read-out: minimum inhibitory concentrations (MIC)): 0.1 µg/mL; MIC (Salmonella panama): 50 µg/mL"
